# Columns and labels:
# [1] = test system: CRMM1 cells injected behind the eye (RO) of zebrafish embryos; test: Zebrafish orthotopic CM tumour model, CRMM1; format: in vivo, Zebrafish (Danio rerio); conditions: for PI (Fluorescence Intensity) / PI (Tumour Area) / Relative Tumour Burden as Measured by Fluorescence Intensity / Tumour Area: CRMM1, Orthotopic Model; for PI (Fluorescence Intensity) / PI (Tumour Area): 0 vs 114 J.cm^−2
# Description: (§1) The zebrafish ectopic conjunctival melanoma tumour model has been described previously. In this model, around 200 fluorescent CM cells are injected into the Duct of Cuvier at 2 dpf, and then disseminate through the blood circulation and grow in the head and tail. To establish the orthotopic tumour model, around 100 red, (td)Tomato fluorescent CRMM1 or CRMM2 cells were injected RO at 2 dpf into tg(Fli:GFP/Casper), endothelial reporter transgenic zebrafish with green fluorescent vasculature and examined by fluorescent microscopy at day 1 and 4 after engraftment (Figure 6A). Tumour expansion at the injection site was measured as fluorescence intensity and tumour area.
# (§2) For cancer cell injection, two days post-fertilization (dpf), dechorionated zebrafish embryos were anaesthetized with 0.003% tricaine (Sigma) and plated on a 10 cm Petri dish covered with 1.5% of solidified agarose. CRMM1 and CRMM2 cells were suspended in PBS containing 2% polyvinylpyrrolidone (PVP; Sigma-Aldrich) with a concentration of 50,000 cells/µL and loaded into borosilicate glass capillary needles (1 mm O.D. × 0.78 mm I.D.; Harvard Apparatus). In the ectopic model, 200 (td)Tomato fluorescent CM cells were injected into the Duct of Cuvier or at 2 dpf, which led to dissemination through the blood circulation and outgrowth in the head and tail. In orthotopic tumour model, 100 (td)Tomato fluorescent CRMM1 or CRMM2 cells were injected RO in 2 dpf embryos using a Pneumatic Picopump and a manipulator (WPI). After injection, the embryos were incubated in a 34 °C incubator. Images were acquired at 1-, 2- and 4-days post injection (dpi) with a Leica M165 FC stereo fluorescence microscope. Tumor growth was quantified by calculating the total fluorescence intensity and area with the ZF4 pixel counting program (Leiden). Each experiment was performed at least 3 times with a group size of >30 embryos.
# (§3) Fluorescent CRMM1 and CRMM2 cells were injected at 2 dpf into the Duct of Cuvier (ectopic model) and behind the eye (orthotopic model) and TLD1433 was delivered by WA, IV and RO administration with or without a light treatment as described in 4.8. For the WA administration, the 4.6 nM TLD1433 solution was added to the tumour cells injected zebrafish at 2.5, 3.5, 4.5, 5.5 dpf and maintained for 12 h. At 3, 4, 5, 6 dpf, the fish water was refreshed, and after 1 h, embryos were exposed to green light for 90 min (21 mW/cm^2, 114 J/cm^2, 520 nm). For the IV and RO administration, 1 nL of 2.3 mM TLD1433 solution was injected via the dorsal vein or the RO site at 3, 4, 5, 6 dpf. After 1 h interval, the embryos were exposed to green light for 90 min (21 mW/cm^2, 114 J/cm^2, 520 nm). After treatment, the embryos images were acquired with a Leica M165 FC stereo fluorescence microscope. Tumor growth was quantified by calculating the total fluorescence intensity and area with the ZF4 pixel counting program (Leiden). Each experiment was performed at least 3 times with a group size of >30 embryos.
# [2] = test system: CRMM1 cells injected into the Duct of Cuvier of zebrafish embryos; test: Zebrafish ectopic CM tumour model, CRMM1; format: in vivo, Zebrafish (Danio rerio); conditions: for PI (Fluorescence Intensity) / PI (Tumour Area) / Relative Tumour Burden as Measured by Fluorescence Intensity / Tumour Area: CRMM1, Ectopic Model; for PI (Fluorescence Intensity) / PI (Tumour Area): 0 vs 114 J.cm^−2
# Description: as §1, §2, §3
# [3] = Intravenous (1 nL of 2.3 mM), Light Dose 0 J.cm^−2, vs control dark group (100%)
# [4] = Intravenous (1 nL of 2.3 mM), Light Dose 114 J.cm^−2, vs control dark group (100%)
# [5] = Retro orbital (1 nL of 2.3 mM), Light dose 0 J.cm^−2, vs control dark group (100%)
# [6] = Retro orbital (1 nL of 2.3 mM), Light dose 114 J.cm^−2, vs control dark group (100%)
# [7] = Retro-orbital (1 nL of 2.3 mM), Light Dose 0 J.cm^−2, vs control dark group (100%)
# [8] = Retro-orbital (1 nL of 2.3 mM), Light Dose 114 J.cm^−2, vs control dark group (100%)
# [9] = Water (4.6 nM), Light dose 0 J.cm^−2, vs control dark group (100%)
# [10] = Water (4.6 nM), Light dose 114 J.cm^−2, vs control dark group (100%)
# [11] = CRMM1, orthotopic model, RO 2.3 mM, green light 114 J.cm^−2
# [12] = CRMM1, ectopic model, IV 2.3 mM, light 114 J.cm^−2
# [13] = CRMM1, ectopic model, RO 2.3 mM, green light 114 J.cm^−2
smiles,measurement,setting,value
Cc1ccnc(-c2cc(C)ccn2)c1.Cc1ccnc(-c2cc(C)ccn2)c1.[Cl-].[Cl-].[Ru+2].c1csc(-c2ccc(-c3ccc(-c4nc5c6cccnc6c6ncccc6c5[nH]4)s3)s2)c1 [TLD1433],PI (Fluorescence Intensity),[1]; Intravenous (1 nL of 2.3 mM),0.82
same,PI (Tumour Area),[1]; Intravenous (1 nL of 2.3 mM),0.87
same,Relative Tumour Burden as Measured by Fluorescence Intensity,[1]; [3],91%
same,Tumour Area,[1]; [3],109%
same,Relative Tumour Burden as Measured by Fluorescence Intensity,[1]; [4],111%
same,Tumour Area,[1]; [4],126%
same,PI (Tumour Area),[1]; Retro orbital (1 nL of 2.3 mM),4.1
same,Tumour Area,[1]; [5],125%
same,Tumour Area,[1]; [6],31%
same,PI (Fluorescence Intensity),[1]; Retro-orbital (1 nL of 2.3 mM),1.8
same,Relative Tumour Burden as Measured by Fluorescence Intensity,[1]; [7],120%
same,Relative Tumour Burden as Measured by Fluorescence Intensity,[1]; [8],65%
same,PI (Fluorescence Intensity),[1]; Water (4.6 nM),1.0
same,PI (Tumour Area),[1]; Water (4.6 nM),1.0
same,Relative Tumour Burden as Measured by Fluorescence Intensity,[1]; [9],96%
same,Tumour Area,[1]; [9],90%
same,Relative Tumour Burden as Measured by Fluorescence Intensity,[1]; [10],96%
same,Tumour Area,[1]; [10],89%
same,diminished fluorescence intensity,[1]; [11],35%
same,diminished tumour area,[1]; [11],69%
same,effect on tumour burden (in words),"[1]; CRMM1, orthotopic model, WA at the MTD (4.6 nM), light 114 J.cm^−2",did not inhibit tumour burden
same,PI (Fluorescence Intensity),[2]; Intravenous (1 nL of 2.3 mM),1.6
same,PI (Tumour Area),[2]; Intravenous (1 nL of 2.3 mM),2.2
same,Relative Tumour Burden as Measured by Fluorescence Intensity,[2]; [3],94%
same,Tumour Area,[2]; [3],102%
same,Relative Tumour Burden as Measured by Fluorescence Intensity,[2]; [4],59%
same,Tumour Area,[2]; [4],46%
same,PI (Tumour Area),[2]; Retro orbital (1 nL of 2.3 mM),2.4
same,Tumour Area,[2]; [5],85%
same,Tumour Area,[2]; [6],36%
same,PI (Fluorescence Intensity),[2]; Retro-orbital (1 nL of 2.3 mM),1.6
same,Relative Tumour Burden as Measured by Fluorescence Intensity,[2]; [7],85%
same,Relative Tumour Burden as Measured by Fluorescence Intensity,[2]; [8],53%
same,PI (Fluorescence Intensity),[2]; Water (4.6 nM),1.0
same,PI (Tumour Area),[2]; Water (4.6 nM),1.0
same,Relative Tumour Burden as Measured by Fluorescence Intensity,[2]; [9],91%
same,Tumour Area,[2]; [9],103%
same,Relative Tumour Burden as Measured by Fluorescence Intensity,[2]; [10],89%
same,Tumour Area,[2]; [10],99%
same,inhibition of tumour area,[2]; [12],54%
same,inhibition of tumour fluorescence intensity,[2]; [12],41%
same,diminished fluorescence intensity,[2]; [13],47%
same,diminished tumour area,[2]; [13],64%
same,effect on tumour burden (in words),"[2]; CRMM1, ectopic model, WA at the MTD (4.6 nM), light 114 J.cm^−2",did not inhibit tumour burden
